Laboratory results taken from US20250290080A1, “METHODS TO PREVENT RAPID SILENCING OF GENES IN PLURIPOTENT STEM CELLS” (FUJIFILM Cellular Dynamics, Inc., priority 2021, published 2025).
Entries after “also recorded” stand apart in the source; their conditions may differ.

Columns and labels:
iPSCs = experiment: Fluorescent protein transgene expression over time in engineered iPSCs (PPP1R12C/AAVS1 locus); format: cell-based
Excerpt: FIGS. 1A-1D: ZsGreen expression driven by EEF1A1p is mottled in iPSCs. iPSCs 01278.103 (FIG. 1A, 1B) and 01279.107 (FIG. 1C, 1D) were engineered with EEF1A1p-ZsGreen at the PPP1R12C locus. Brightfield and Fluorescence (GFP) microscopy were used to capture the GFP expression in the cells 11 passages post-engineering (FIGS. 1A-1B) or 18 passages post-engineering (FIGS. 1C-1D).
The percent GFP expression in five clones targeted with EEF1A1p-CpG-free-AcGFP1 (FIG. 3A) and nine clones targeted with EEF1A1p-AcGFP1 (FIG. 3B) at the AAVS1 locus was monitored overtime.
FIGS. 4A-4C: Rapid silencing of AcGFP1 in iPSCs. Depiction of engineering iPSCs at the PPP1R12C locus (AAVS1 safe harbor) with three cassettes EEF1A1p-mRFP1+PGKp-Puro, EEF1A1p-AcGFP1 or EEF1A1p-CpG-Free AcGFP1. Noted within the figure are the engineered iPSC ID numbers for cell lines 8717 and 9650 which are used in further experiments throughout the document (FIG. 4A). […] After two months in culture, AcGFP1 engineered iPSCs were bulk sorted for AcGFP1 expression. Brightfield and Fluorescence (GFP) microscopy was used to capture the GFP expression in the cells 12 days post-sorting (FIG. 4B) or 23 days post-sorting (FIG. 4C).
The EEF1A1 promoter was used for expression of AcGFP1 in iPSCs at the PPP1R12C locus.

iPSC line 01279.107 [1] = experiment: Luciferase expression during transient transfection of promoter-pGL3 plasmids (Dual-Luciferase Reporter Assay); format: cell-based, human; details: assayed one day later
Excerpt: Promoters cloned: The following promoters were identified as being likely candidates for constitutive expression in all cell types. Some were cloned from existing plasmids (CAG, PGK, UBC-version1, EEF1A1, ACTB). […] The new promoters include RPS19, UBA52, HSP90AB1, an enlarged region of UBC (version 2), UBB, RPSA, NACA, and COX8A. Sequences were cloned into the pGL3 plasmid vector (replacing the SV40 promoter between MluI and NcoI restriction sites) to enable a comparison of promoter strength when driving the luciferase reporter gene.
Luciferase expression during transient transfection: Transient transfection was performed of the promoter-pGL3 plasmids into iPSCs to determine the strength of expression. Using a 96wp format, 50 uL of E8 media+10 uM blebbistatin was added to each well. Each plasmid was assayed in triplicate by adding 16.5 uL of the following reagent preparation. One well of a 6wp of iPSC line 01279.107 was harvested using Accutase, resuspended in 3.5 mL E8 media+10 uM blebbistatin, and 50 uL was added to each well. One day later the cells were assayed using the Dual-Luciferase Reporter Assay System (Promega).
Expression values at or above the level of the PGK promoter were desired so RPS19, UBA52, HSP90AB1, and UBC were selected for further study.

iPSC line 01279.107 [2] = experiment: ZsGreen expression in engineered iPSC lines in long-term culture, flow cytometry; format: cell-based, human; details: for ZsGreen expression in iPSC over time: culture up to seven months, E8 media/vitronectin
Excerpt: ZsGreen Constructs Integrated at the AAVS1 Safe Harbor Locus: To examine longer term expression driven by the candidate promoters in a chromosomal context, they were cloned into plasmids controlling ZsGreen fluorescent protein and targeted to the AAVS1 safe harbor locus on chromosome 19 in human iPSC (plasmid design is shown below using the CAG promoter as an example). […] Correctly targeted heterozygous clones were expanded.
Genomic Loci Suitable for Tagging to Yield Constitutive Expression: In addition to promoter-driven expression from a safe harbor, specific genes expressed in most cell-types can be tagged with a reporter gene to give constitutive expression. The genes HSP90AB1, ACTB, CTNNB1, and MYL6 were chosen for evaluation and were tagged with ZsGreen and an F2A cleavage sequence via TALEN-mediated gene editing. Correctly targeted heterozygous clones were expanded.
ZsGreen expression in iPSC: Engineered iPSC lines expressing ZsGreen fluorescent protein were maintained in culture for up to seven months (E8 media/vitronectin coated plates) and periodically checked for green expression using flow cytometry on an Accuri C6 instrument (BD).

[3] = system: iPSC-derived neuronal cells; experiment: ZsGreen expression after neuronal differentiation protocol, day 21 flow cytometry; format: cell-based, human; details: day 21 of differentiation
Excerpt: (§1) Differentiation: In order to determine the stability of expression post-differentiation, the engineered lines were subjected to differentiation protocols to direct them toward either neuronal or cardiac cell types.

[4] = system: iPSC-derived cardiac cells; experiment: ZsGreen expression after cardiac differentiation protocol, day 21 flow cytometry; format: cell-based, human; details: day 21 of differentiation
Excerpt: as §1

[5] = system: silenced CpG-free AcGFP1 clones; experiment: NaBut treatment of silenced CpG-free AcGFP1 clones, % GFP expression by flow cytometry; format: cell-based
Method: FIGS. 5A-5B: Silenced transgene be reactivated with NaBut treatment. A small number of cells were silenced in the CpG-free AcGPF1 cultures (<3% of cells, FIG. 3A). These silenced cells were single cell sorted and expanded to further investigate their silencing and research methods for overcoming the silencing. Two months after sorting for no GFP expression, silenced CpG-free AcGFP1 clones were treated with 1 mM, 0.5 mM, or 1 μM of NaBut. […] After a successful pilot experiment, the duration of NaBut treatment was increased to 46 days with NaBut treatment doses of 0.25 mM and 0.5 mM and the GFP expression levels were monitored over time by fluorescent microscopy and flow cytometry. The initial results were confirmed (FIGS. 5A and 5B, dark blue bar: day 8 of treatment).
However, after 5 months, a small percentage of cells were detected with no GFP expression (3%) even though the CpGs had been removed from AcGFP1. To investigate this population, clones were isolated by single cell sorting for no GFP expression. The cells were treated with sodium butyrate (NaBut), a histone deacetylase (HDAC) inhibitor capable of removing chromatin structure and inducing demethylation.

iPSC line 2.038 = experiment: Drug resistance of iPSC line 2.038 transfected with WT PuroR vs. CpG-free PuroR plasmids; format: cell-based; details: cassette introduced into iPSCs by electroporation
Excerpt: The CpG-free PuroR cassette was introduced into iPSCs by electroporation.

Molecule	ZsGreen expression in iPSC over time (iPSC line 01279.107 [2])	ZsGreen fluorescence after neuronal differentiation [3]	ZsGreen expression after cardiac differentiation [4]	further results
AcGFP1: Aequorea coerulescens green fluorescence protein DNA sequence, SEQ ID NO:13 [reference compound]	–	–	–	cells with no GFP expression (silenced) (iPSCs; CpG-free AcGFP1 cultures, after 5 months): 3%; stability of fluorescent protein expression over time (iPSCs; EEF1A1 promoter, PPP1R12C (AAVS1) locus, iPSCs in culture): not maintained overtime; also recorded: did not retain consistent expression
HSP90AB1 promoter: HSP90AB1 promoter, SEQ ID NO:5	–	–	–	Normalized luciferase (Firefly/Renilla ratio, normalized to EEF1A1=100%) (iPSC line 01279.107 [1]): ~75%
HSP90AB1del400 promoter: HSP90AB1 promoter with 417 bp deletion between two ClaI sites, SEQ ID NO:4	stable iPSC expression over four months	many cells with diminishing fluorescence	varying amounts of expression silencing	Normalized luciferase (Firefly/Renilla ratio, normalized to EEF1A1=100%) (iPSC line 01279.107 [1]): around 66%
UBA52: UBA52 promoter, SEQ ID NO:3	stable iPSC expression over four months	tight and stable expression	tight and stable expression	–
RPS19: RPS19 promoter, SEQ ID NO:2	stable iPSC expression over four months	tight and stable expression	varying amounts of expression silencing	ZsGreen expression in iPSC at seven months (iPSC line 01279.107 [2]; out to seven months in culture): some silencing
CCCC(=O)[O-].[Na+] [NaBut, sodium butyrate]	–	–	–	effect on GFP expression levels over time ([5]; 0.25 mM and 0.5 mM NaBut, 46 days): dose dependent effect; reactivation of GFP expression ([5]; 1 mM, 0.5 mM, or 1 μM NaBut, nine days, flow cytometry): dose dependent reactivation; also recorded: dose-dependent reactivation
CpG-free PuroRv1: CpG-free puromycin resistance gene sequence, SEQ ID NO:15 (nucleic acid, misc_feature 1..606 Synthetic promotor sequence) DNA: ATGACTGAATACAAACCAACTGTTAGACTGGCAACTAGAGATGATGTTCCAAGAGCAGTTAGAACCCTGGCTGCTGCATTTGCTGACTACCCTGCAACCAGACACACTGTGGACCCAGACAGACACATTGAAAGAGTGACTGAACTGCAGGAGCTGTTCCTGACCAGAGTGGGCCTGGACATTGGCAAAGTGTGGGTGGCAGATGATGGTGCTGCTGTGGCAGTGTGGACCACCCCTGAATCTGTTGAAGCTGGTGCAGTGTTTGCTGAGATTGGCCCAAGAATGGCAGAACTGTCTGGCAGCAGACTGGCAGCACAACAGCAGATGGAAGGTCTGCTGGCACCACACAGACCAAAAGAACCTGCTTGGTTCCTGGCAACTGTGGGTGTGAGCCCTGACCACCAGGGTAAGGGCCTGGGCTCTGCAGTGGTGCTGCCTGGTGTGGAAGCAGCTGAAAGAGCAGGTGTGCCTGCTTTCCTGGAGACCTCAGCTCCAAGAAACCTGCCTTTCTATGAAAGACTGGGCTTCACTGTGACTGCTGATGTGGAAGTGCCAGAAGGCCCAAGAACTTGGTGCATGACTAGAAAACCAGGTGCTTGATAATGA	–	–	–	drug resistance conferred (iPSC line 2.038): capable of conferring drug resistance
PuroRv2: CpG-free puromycin resistance gene version 2, SEQ ID NO:16 (nucleic acid, misc_feature 1..606 Synthetic promotor sequence) DNA: ATGACTGAATACAAACCAACTGTTAGACTGGCAACTAGAGATGATGTTCCAAGAGCAGTTAGAACCCTGGCTGCTGCATTTGCTGACTACCCTGCAACCAGACACACTGTGGACCCAGACAGACACATTGAAAGAGTGACTGAACTGCAGGAGCTGTTCCTGACCAGAGTGGGCCTGGACATTGGCAAAGTGTGGGTGGCAGATGATGGTGCTGCTGTGGCAGTGTGGACCACCCCTGAATCTGTTGAAGCTGGTGCAGTGTTTGCTGAGATTGGCCCAAGAATGGCAGAACTGTCTGGCAGCAGACTGGCAGCACAACAGCAGATGGAAGGTCTGCTGGCACCACACAGACCAAAAGAACCTGCTTGGTTCCTGGCAACTGTGGGTGTGAGCCCTGACCACCAGGGTAAGGGCCTGGGCTCTGCAGTGGTGCTGCCTGGTGTGGAAGCAGCTGAAAGAGCAGGTGTGCCTGCTTTCCTGGAGACCTCAGCTCCAAGAAACCTGCCTTTCTATGAAAGACTGGGCTTCACTGTGACTGCTGATGTGGAATGCCCAAAGGACAGAGCAACTTGGTGCATGACTAGAAAACCAGGTGCTTGATAATGA	–	–	–	drug resistance conferred (iPSC line 2.038): capable of conferring drug resistance
